We go through 23 molecules from patent US20250214942A1, “INHIBITORS OF RECEPTOR INTERACTING PROTEIN KINASE I FOR THE TREATMENT OF DISEASE” (Board of Regents, The University of Texas System, priority 2019, published 2025).

One test deals with RIPK1 (Homo sapiens (Human), UniProt Q13546). The test is described as follows: ADP-Glo kinase assay (RIPK1 activity, conversion of ATP to ADP). It is filed as biochemical. The conditions noted are these: for IC50: 5 nM RIPK1, 50 μM ATP, 6 h reaction, read-out: RIPK1 Enzyme Avg IC50. In short, it runs like this:
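ADP-Glo luminescence of ATP-to-ADP conversion by 5 nM RIPK1 with 50 μM ATP (final), 6 h reaction after 10 min compound preincubation at rt. Buffer was 50 mM HEPES pH 7.5, 30 mM MgCl2, 0.05% BSA, 0.02% CHAPS. IC50 from four-parameter logistic fit.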
For orientation: ADP-Glo first removes unused ATP, then detects ADP through luciferase.

Test [1] deals with human monocytic cell line U937. The test is described as follows: Human U937 cellular necroptosis assay (TNFalpha + z-VAD-FMK, Cell Titer-Glo viability). Format: cell-based. Particulars: U937 cells, 25 ng/mL human TNFalpha + 25 μM z-VAD-FMK, read-out: hU937 Avg IC50. In short, it runs like this:
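Cells resuspended in phenol red-free RPMI with 10% FBS, stimulated with 25 ng/mL human TNFalpha plus 25 μM z-VAD-FMK, then given serially diluted compound for 22 h at 37° C, 5% CO2. Viability by Cell Titer-Glo 2.0 luminescence; IC50 from four-parameter logistic fit, averaged across runs.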

As a reminder, the IC50 is the concentration that inhibits the measured activity by half.

Read-outs that look alike come from different tables or passages of the source.

RIPK1, sequence (Q13546 1-327): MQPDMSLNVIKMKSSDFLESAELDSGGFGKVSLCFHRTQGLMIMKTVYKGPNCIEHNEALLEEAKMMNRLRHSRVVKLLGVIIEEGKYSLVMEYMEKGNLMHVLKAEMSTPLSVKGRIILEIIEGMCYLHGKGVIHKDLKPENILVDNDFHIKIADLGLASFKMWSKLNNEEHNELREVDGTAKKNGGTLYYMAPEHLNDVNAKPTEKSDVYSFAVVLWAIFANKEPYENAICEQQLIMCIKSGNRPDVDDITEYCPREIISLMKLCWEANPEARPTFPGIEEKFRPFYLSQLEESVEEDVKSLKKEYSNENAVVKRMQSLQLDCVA

In the case of `O=C(N1N=CCC1c1cc(F)cc(F)c1)C12CC(Cn3nc4ccc(F)cc4n3)(C1)C2` (stereo not shown) [Example 85, (5-(3,5-difluorophenyl)-4,5-dihydro-1H-pyrazol-1-yl)(3-((5-fluoro-2H-benzo[d]-[1,2,3]triazol-2-yl)methyl)-bicyclo[1.1.1]pentan-1-yl)-methanone], the half-maximal inhibitory concentration (IC50) stood at 18 nM at RIPK1 and 24 nM in test [1] (Homo sapiens, U-937, 22 h).
For `N#Cc1cc(OCC23CC(C(=O)N4N=CCC4c4cncc(F)c4)(C2)C3)ncn1` (stereo not shown) [Example 126, 6-((3-(5-(5-fluoropyridin-3-yl)-4,5-dihydro-1H-pyrazole-1-carbonyl)bicyclo[1.1.1]-pentan-1-yl)-methoxy)pyrimidine-4-carbonitrile] the same measures were 49 nM and 440 nM.
For `O=C(N1N=CCC1c1cc(F)cc(F)c1)C12CC(Cn3ccc4cc(F)ccc43)(C1)C2` (stereo not shown) [Example 133, (5-(3,5-difluorophenyl)-4,5-dihydro-1H-pyrazol-1-yl)(3-((5-fluoro-1H-indol-1-yl)-methyl)bicyclo[1.1.1]pentan-1-yl)methanone] the same measures were 20 nM and 10 nM.
For `O=C(N1N=CCC1c1cc(F)cc(F)c1)C12CC(Cn3ncc4ccncc43)(C1)C2` (stereo not shown) [Example 87, (3-((1H-pyrazolo[3,4-c]-pyridin-1-yl)methyl)bicyclo-[1.1.1]pentan-1-yl)(5-(3,5-difluorophenyl)-4,5-dihydro-1H-pyrazol-1-yl)methanone] the same measures were 21 nM and 33 nM.
For the molecule `Cc1ncnc(OCC23CC(C(=O)N4CC(F)CC4c4cccc(F)c4)(C2)C3)c1F` (stereo not shown) [Example 93, (4-fluoro-2-(3-fluorophenyl)-pyrrolidin-1-yl)(3-(((5-fluoro-6-methylpyrimidin-4-yl)oxy)methyl)bicyclo[1.1.1]-pentan-1-yl)methanone], the IC50 on RIPK1 worked out at 79 nM; in test [1] (Homo sapiens, U-937, 22 h), 398 nM.
As to `N#Cc1cnc2ncn(CC34CC(C(=O)N5N=CCC5c5cc(F)cc(F)c5)(C3)C4)c2c1` (stereo not shown) [Example 184, 1-((3-(5-(3,5-difluorophenyl)-4,5-dihydro-1H-pyrazole-1-carbonyl)bicyclo[1.1.1]-pentan-1-yl)methyl)-1H-imidazo[4,5-b]pyridine-6-carbonitrile or 3-((3-(5-(3,5-difluorophenyl)-4,5-dihydro-1H-pyrazole-1-carbonyl)bicyclo[1.1.1]pentan-1-yl)methyl)-3H-imidazo[4,5-b]pyridine-6-carbonitrile], the IC50 on RIPK1 was determined as 136 nM; in test [1] (22 h), 1240 nM.
With `O=C(N1N=CCC1c1cc(F)cc(F)c1)C12CC(Cn3nc4ccccc4c3Cl)(C1)C2` (stereo not shown) [Example 140, (3-((3-chloro-2H-indazol-2-yl)methyl)bicyclo[1.1.1]-pentan-1-yl)(5-(3,5-difluorophenyl)-4,5-dihydro-1H-pyrazol-1-yl)methanone], the IC50 was determined as 49 nM at RIPK1 and 53 nM in test [1] (Homo sapiens, U-937, 22 h).
For `N#Cc1cccc(C2CC=NN2C(=O)C23CC(Cn4ncc5c(F)cccc54)(C2)C3)c1` (stereo not shown) [Example 82, 3-(1-(3-((4-fluoro-1H-indazol-1-yl)methyl)bicyclo-[1.1.1]pentane-1-carbonyl)-4,5-dihydro-1H-pyrazol-5-yl)benzonitrile] the same measures were 11 nM and 31 nM.
With `N#Cc1ccc2c(cnn2CC23CC(C(=O)N4CCC4c4cccc(F)c4)(C2)C3)c1` (stereo not shown) [Example 252, 1-((3-(2-(3-fluorophenyl)-azetidine-1-carbonyl)bicyclo-[1.1.1]pentan-1-yl)methyl)-1H-indazole-5-carbonitrile], the IC50 at RIPK1 was 43 nM; in test [1] (Homo sapiens, U-937, 22 h) it was 436 nM.
For `N#Cc1ccc2nn(CC34CC(C(=O)N5N=CCC5c5cc(F)cc(F)c5)(C3)C4)cc2c1` (stereo not shown) [Example 61, 2-((3-(5-(3,5-difluorophenyl)-4,5-dihydro-1H-pyrazole-1-carbonyl)bicyclo[1.1.1]-pentan-1-yl)methyl)-2H-indazole-5-carbonitrile] the same measures were 45 nM and 211 nM.
For `Cc1csc(C2CC=NN2C(=O)C23CC(Cn4cc(C#N)cn4)(C2)C3)n1` (stereo not shown) [Example 170, 1-((3-(5-(4-methylthiazol-2-yl)-4,5-dihydro-1H-pyrazole-1-carbonyl)bicyclo[1.1.1]-pentan-1-yl)methyl)-1H-pyrazole-4-carbonitrile] the same measures were 4670 nM and 9890 nM.
With `N#Cc1cnc(OCC23CC(C(=O)N4N=CC[C@@H]4c4cc(F)cc(F)c4)(C2)C3)cn1` [Example 200, (R)-5-((3-(5-(3,5-difluorophenyl)-4,5-dihydro-1H-pyrazole-1-carbonyl)bicyclo[1.1.1]pentan-1-yl)methoxy)pyrazine-2-carbonitrile], at RIPK1 (enantiomers separated by SFC, assay not named), the “observed potency relative to the other enantiomer” value was “less potent isomer”. In addition, the IC50 in test [1] (Homo sapiens, U-937, 22 h) turned out to be 8560 nM.
`CC1CC(c2cccc(F)c2)N(C(=O)C23CC(Cn4cc(C#N)cn4)(C2)C3)C1` (stereo not shown) [Example 172, 1-((3-(2-(3-fluorophenyl)-4-methylpyrrolidine-1-carbonyl)bicyclo[1.1.1]-pentan-1-yl)methyl)-1H-pyrazole-4-carbonitrile]: the half-inhibitory concentration (IC50) was 4350 nM at RIPK1 and > 10000 nM in test [1] (Homo sapiens, U-937, 22 h).
The corresponding values for `N#Cc1ccc2c(ccn2CC23CC(C(=O)N4N=CCC4c4cc(F)cc(F)c4)(C2)C3)n1` (stereo not shown) [Example 210, 1-((3-(5-(3,5-difluorophenyl)-4,5-dihydro-1H-pyrazole-1-carbonyl)bicyclo[1.1.1]pentan-1-yl)methyl)-1H-pyrrolo[3,2-b]pyridine-5-carbonitrile] are 9.4 nM and 10 nM.
On to `O=C(N1N=CCC1c1cc(F)cc(F)c1)C12CC(Cn3ccc4ncc(F)cc43)(C1)C2` (stereo not shown) [Example 134, (5-(3,5-difluorophenyl)-4,5-dihydro-1H-pyrazol-1-yl)(3-((6-fluoro-1H-pyrrolo[3,2-b]-pyridin-1-yl)methyl)-bicyclo[1.1.1]pentan-1-yl)methanone], for which the half-maximal inhibitory concentration (IC50) on RIPK1 turned out to be 24 nM; in test [1] (Homo sapiens, U-937, 22 h) it was 46 nM.
The corresponding values for `O=C(N1N=CCC1c1cc(F)cc(F)c1)C12CC(Cn3ncc4c3CCC4)(C1)C2` (stereo not shown) [Example 145, (5-(3,5-difluorophenyl)-4,5-dihydro-1H-pyrazol-1-yl)(3-((5,6-dihydrocyclopenta[c]-pyrazol-1(4H)-yl)methyl)-bicyclo[1.1.1]pentan-1-yl)methanone] are 169 nM and 701 nM.
For `O=C(N1N=CCC1c1cc(F)cc(F)c1)C12CC(Cn3cc(-c4ccccn4)cn3)(C1)C2` (stereo not shown) [Example 111, (5-(3,5-difluorophenyl)-4,5-dihydro-1H-pyrazol-1-yl)(3-((4-(pyridin-2-yl)-1H-pyrazol-1-yl)methyl)-bicyclo[1.1.1]pentan-1-yl)methanone] the same measures were 43 nM and 249 nM.
For `N#Cc1cccc2cnn(CC34CC(C(=O)N5N=CCC5c5cc(F)cc(F)c5)(C3)C4)c12` (stereo not shown) [Example 143, 1-((3-(5-(3,5-difluorophenyl)-4,5-dihydro-1H-pyrazole-1-carbonyl)bicyclo[1.1.1]-pentan-1-yl)methyl)-1H-indazole-7-carbonitrile] the same measures were 122 nM and 495 nM.
Regarding `O=C(N1N=CCC1c1cc(F)cc(F)c1)C12CC(Cn3ncc4ncccc43)(C1)C2` (stereo not shown) [Example 65, (3-((1H-pyrazolo[4,3-b]-pyridin-1-yl)methyl)bicyclo-[1.1.1]pentan-1-yl)(5-(3,5-difluorophenyl)-4,5-dihydro-1H-pyrazol-1-yl)methanone], the 50% inhibitory concentration (IC50) at RIPK1 is 11 nM; in test [1] (22 h), 44 nM.
On to `N#Cc1cnn(CC23CC(C(=O)N4N=CCC4c4cnccn4)(C2)C3)c1` (stereo not shown) [Example 167, 1-((3-(5-(pyrazin-2-yl)-4,5-dihydro-1H-pyrazole-1-carbonyl)bicyclo[1.1.1]-pentan-1-yl)methyl)-1H-pyrazole-4-carbonitrile], for which the IC50 on RIPK1 stood at 306 nM; in test [1] (Homo sapiens, U-937, 22 h), 1880 nM.
For the molecule `O=C(N1N=CCC1c1cc(F)cc(F)c1)C12CC(Cn3cnc4ncccc43)(C1)C2` (stereo not shown) [Example 193, (3-((1H-imidazo[4,5-b]-pyridin-1-yl)methyl)-bicyclo[1.1.1]pentan-1-yl)(5-(3,5-difluorophenyl)-4,5-dihydro-1H-pyrazol-1-yl)methanone and (3-((3H-imidazol[4,5-b]pyridin-3-yl)methyl)-bicyclo[1.1.1]pentan-1-yl)(5-(3,5-difluorophenyl)-4,5-dihydro-1H-pyrazol-1-yl)methanone], the IC50 came out at 292 nM on RIPK1 and 1390 nM in test [1] (22 h).
The corresponding values for “1-((3-(5-(3,5-difluorophenyl)-4,5-dihydro-1H-pyrazole-1-carbonyl)bicyclo[1.1.1]-pentan-1-yl)methyl)-1H-benzo[d]imidazole-6-carbonitrile and 1-((3-(5-(3,5-difluorophenyl)-4,5-dihydro-1H-pyrazole-1-carbonyl)bicyclo[1.1.1]-pentan-1-yl)methyl)-1H-benzo[d]imidazole-5-carbonitrile [Example 186]” are 113 nM and 682 nM.
Turning to `O=C(N1N=CCC1c1cc(F)cc(F)c1)C12CC(Cn3cc4cc(F)ccc4n3)(C1)C2` (stereo not shown) [Example 3, (5-(3,5-Difluorophenyl)-4,5-dihydro-1H-pyrazol-1-yl)(3-((5-fluoro-2H-indazol-2-yl)methyl)bicyclo[1.1.1]pentan-1-yl)methanone], the half-inhibitory concentration (IC50) was determined as 51 nM on RIPK1 and 112 nM in test [1] (Homo sapiens, U-937, 22 h).
